Laboratory results taken from patent publication US8044100B2, “Methods and compositions for treating amyloid-related diseases” (Bellus Health Inc., priority 2004, dated 2011).

Columns and labels:
NAC peptide = target: T1, NAC peptide (Homo sapiens, UniProt P37840); experiment: Binding to NAC peptide by electrospray mass spectrometry; settings: 5:1 ratio compound:NAC (100 μM:20 μM or 200 μM:40 μM), pH 7.4; bound complex peak area / unbound NAC peak area
T1 construct: NAC is a 35 amino acid long peptide with highly hydrophobic stretches
Method: The ability of the compounds of the present invention to bind to NAC peptide in aqueous solution was evaluated. The binding ability correlates to the intensities of the peptide-compound complex peaks observed by the Electrospray Mass Spectrum. Millipore distilled deionized water was used to prepare all aqueous solutions. For pH determination a Beckman Φ36 pH meter fitted with a Corning Semi-Micro Combination pH Electrode was employed.
The optimal cone voltage was determined to be 20V.
Mass spectrometry—Mass spectrometric analysis was performed using a Waters ZQ 4000 mass spectrometer equipped with a Waters 2795 sample manager. MassLynx 4.0 (earlier by MassLynx 3.5) was used for data processing and analysis. Test compounds were mixed with disaggregated peptides in aqueous media (6.6% EtOH) at a 5:1 ratio (20 μM NAC:100 μM of test compound or 40 μM NAC:200 μM of test compound). The pH of the mixture was adjusted to 7.4 (+0.2) using 0.1% NaOH (3-5 μL). Periodically, NAC peptide solution at 20 μM or 40 μM was also prepared in the same fashion and run as control. The spectra were obtained by introducing the solutions to the electrospray source by direct infusion using a syringe pump at a flow rate of 25 μl/min, and scanning from 100 to 2100 Da in the positive mode. The scan time was 0.9 sec per scan with an inter-scan delay of 0.1 sec and the run time was 5 min for each sample. All the mass spectra were sum of 300 scans. The desolvation and source temperature was 70° C. and the cone and capillary voltage were maintained at 20 V and 3.2 kV respectively.
The total area under the peaks for the bound NAC-compound complex divided by total area under the peaks for unbound NAC was determined for each compound tested.

[1] = test system: Aβ peptides (Aβ40, Aβ42) in the plasma and brain of TgCRND8 mice; experiment: Long term treatment (8 or 16 weeks) in TgCRND8 mice: Aβ levels in plasma and brain; type: in vivo, mouse; settings: BX subcutaneous, BW and BZ oral
Method: The long-term therapeutic effects of compounds of the present invention on cerebral amyloid deposition and β-amyloid (Aβ) levels in the plasma and in the brains of transgenic mice, TgCRND8, expressing the human amyloid precursor protein (hAPP) was studied. These compounds were administered over an 8 or 16 week period at the end of which the levels of Aβ peptides in the plasma and brain of TgCRND8 animals were determined. The goal of this study was to evaluate the efficacy of the compounds at modulating the progression of the amyloidogenic process in the brain and in the plasma of a transgenic mouse model of Alzheimer's disease (AD)
The mice used in the study consisted of animals bearing one copy of the hAPP gene (+/−) from the 2nd and 3rd generation progenies (N2 and N3) derived from backcrosses from TgCRND8.FVB(N2)AJ(N3) with B6AF1/J hybrid animals. • N1=TgCRND8.FVB(N2)AJ(N3)×B6AF1/J • N2=TgCRND8.FVB(N2)AJ(N3).B6AF1/J(N1)×B6AF1/J • N3=TgCRND8.FVB(N2)AJ(N3).B6AF1/J(N2)×B6AF1/J
The following abbreviations are used to designate these animals in the present study: TgCRND8.B6AF1/J(N2); TgCRND8.B6AF1/J(N3). Male and female transgenic mice were given daily subcutaneous (compound BX) or oral (compounds BW and BZ) administrations of the appropriate compounds for 8 or 16 weeks.
Baseline animals consisted of 9±1 week old naive TgCRND8.B6AF1/J animals from the 2nd and 3rd generations. These mice were used to determine the extent of cerebral amyloid deposits and Aβ levels in the plasma and brain of naive transgenic animals at the initiation of treatment.
Starting at 9 weeks of age (+1 week) animals received daily administration of their respective treatment for a period of 8 or 16 weeks, at a dose of 30 or 100 mg/kg at 10 ml/kg. The route of administration was subcutaneous for water-soluble compounds (Compound BX) and oral for compounds solubilized in methylcellulose 1% (MC 1%) (Compounds BW and BZ). At the end of the treatment periods, plasma and perfused brains were collected for quantification of Aβ levels.
Animal health was monitored, samples were collected and Aβ levels were measured as described above in the short term treatment study. Compounds were scored based on their ability to modulate levels of Aβ peptides in the plasma and the cerebral soluble/insoluble levels in the brain. Levels of Aβ observed in the plasma and brain of treated animals were compared to that of vehicle-treated (water) or methylcellulose-treated control groups and ranked according to the strength of the pharmacological effect. Increases in the levels of Aβ peptides are indicated using “+” symbols, while decreases in the levels of Aβ peptides are indicated using “−” symbols. The strongest effects are recorded as “+++” or “−−−” while the weakest are shown as “+” or “−”.
Specifically, increases in the levels of Aβ (relative to vehicle treated control) of 5 to 14% are scored as “+”; increases of 15 to 29% are scored as “++”; and increases of 30% or higher are scored as “+++”. Decreases in the levels of Aβ of 5 to 14% are scored as “−”; decreases of 15 to 29% are scored as “−−”; and decreases of 30% or more are scored as “−−−”. Additionally, changes of 4% or less in either direction are scored as “0”.

[2] = test system: Aβ peptides (Aβ40, Aβ42) in the plasma and brain of TgCRND8 mice; experiment: Short term treatment (14 or 28 days) in TgCRND8 mice: Aβ levels in plasma and brain by ELISA; type: in vivo, mouse;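 for Aβ40 Change Insoluble: symbols grade percent change in Aβ versus untreated control with plus for increase and minus for decrease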;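 for Aβ40 Change Soluble: symbols grade percent change in Aβ versus untreated control with plus for increase and minus for decrease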;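 for Aβ42 Change Insoluble: symbols grade percent change in Aβ versus untreated control with plus for increase and minus for decrease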
Method: The short term therapeutic effect of 19 compounds of the invention was studied. These compounds were administered over a 14 or 28 day period at the end of which the levels of Aβ peptides in the plasma and brain of TgCRND8 animals were determined.
Male and female transgenic mice from the 3rd and 4th B6C3F1 generations were used in this example and given daily subcutaneous or oral administrations of one of a series of compounds for 14 or 28 days. The following abbreviations are used to designate these animals from the 3rd and 4th generation backcross in the present protocol: TgCRND8-2.B6C3F1(N3); TgCRND8-2.B6C3F1 (N4).
Baseline animals (Group 1) consisted of naive TgCRND8-2. B6C3F1(N3) at 11±1 weeks of age. These mice were used to determine the Aβ levels in the plasma and brain of naive transgenic animals at the initiation of treatment.
Starting at 11 weeks of age (±1 week) animals received daily administration of their respective treatment for a period of 14 or 28 days (groups 2-21), at a dose of 250 mg/kg at 10 ml/kg or of vehicle only (water; group 2) or 1% methyl cellulose only (group 21). The route of administration was subcutaneous for water-soluble compounds and oral for compounds solubilized in methylcellulose 1%. (MC 1%). At the end of the treatment periods, plasma and perfused brains were collected for quantification of Aβ levels.
At 11±1 weeks of age for the Baseline group, and at the end of the treatment period (14 or 28 days) for Groups 2 to 21, at 24 hours after the last compound administration animals were sacrificed and samples collected. An approximate blood volume of 500 μl was collected from the orbital sinus and kept on ice until centrifugation at 4° C. at a minimum speed of 3,000 rpm for 10 minutes. Plasma samples were immediately frozen and stored at −80° C. pending analysis. The brains were removed, frozen, and stored at −80° C. awaiting analysis.
Brains were weighted frozen and homogenized with 4 volumes of ice cold 50 mM Tris-Cl pH 8.0 buffer with protease inhibitor cocktail (4 mL of buffer for 1 g of wet brain). Samples were spun at 15000 g for 20 minutes and the supernatants were transferred to fresh tubes. One hundred fifty (150) μl from each supernatant were mixed with 250 μl of 8M guanidine-HCL/50 mM Tris-HCL pH 8.0 (ratio of 0.6 vol supernatant:1 vol 8M guanidium/Tris-HCL 50 mM pH8.0) and 400 μL 5 M guanidium/Tris-HCL 50 mM pH8.0 were added. The tubes were vortexed for 30 seconds and frozen at −80° C. In parallel, pellets were treated with 7 volumes of 5 M guanidine-HCL/50 mM Tris-HCL pH 8.0 (7 mL of guanidine for 1 g of wet brain), vortexed for 30 seconds and frozen at −80° C. Samples were thawed at room temperature, sonicated at 80° C. for 15 minutes and frozen again. This cycle was repeated 3 times to ensure homogeneity and samples were returned to −80° C. pending analysis.
Aβ levels were evaluated in plasma and brain samples by ELISA using Human Aβ40 and Aβ42 Fluorometric ELISA kits from Biosource (Cat. No. 89-344 and 89-348) according to manufacturer's recommended procedures. In short, samples were thawed at room temperature, sonicated for 5 minutes at 80° C. (sonication for brain homogenates; no sonication for plasma samples) and kept on ice. Aβ peptides were captured using 100 μl of the diluted samples to the plate and incubated without shaking at 4° C. overnight. The samples were aspirated and the wells were rinsed 4 times with wash buffer obtained from the Biosource ELISA kit. The anti-Aβ40 or anti-Aβ42 rabbit polyclonal antiserum (specific for the Aβ40 or Aβ42 peptide) was added (100 μl) and the plate was incubated at room temperature for 2 hours with shaking. The wells were aspirated and washed 4 times before adding 100 μl of the alkaline phosphatase labeled anti-rabbit antibody and incubating at room temperature for 2 hours with shaking. The plates were then rinsed 5 times and the fluorescent substrate (100 μl) was added to the plate. […]

[3] = brain homogenate, Day 14, methylcellulose group, daily oral
[4] = brain homogenate, Day 28, methylcellulose group, daily oral
[5] = plasma, Day 28, methylcellulose group, daily oral

## O=S(=O)(O)CCCNC1C2CC3CC(C2)CC1C3 (centres unmarked) [drawing 749]
NAC peptide
  Binding Strength: ++ (Moderate; when the total binding is between 120% and 70%)

## O=S(=O)(O)CCCNC1C2CC3CC(C2)CC1C3 (centres unmarked) [BZ]
[1]; 30 mg/kg daily, 8 wks
  Brain Abeta40 insoluble: −− (decreases of 15 to 29%)
  Brain Abeta40 soluble: 0 (changes of 4% or less in either direction)
  Brain Abeta42 insoluble: −−− (decreases of 30% or more)
  Brain Abeta42 soluble: 0 (changes of 4% or less in either direction)
  Plasma Abeta40: 0 (changes of 4% or less in either direction)
  Plasma Abeta42: 0 (changes of 4% or less in either direction)
[1]; 30 mg/kg daily, 16 wks
  Brain Abeta40 insoluble: + (increases in the levels of Aβ (relative to vehicle treated control) of 5 to 14%)
  Brain Abeta40 soluble: 0 (changes of 4% or less in either direction)
  Brain Abeta42 insoluble: 0 (changes of 4% or less in either direction)
  Brain Abeta42 soluble: + (increases in the levels of Aβ (relative to vehicle treated control) of 5 to 14%)
  Plasma Abeta40: 0 (changes of 4% or less in either direction)
  Plasma Abeta42: + (increases in the levels of Aβ (relative to vehicle treated control) of 5 to 14%)
[1]; 100 mg/kg daily, 8 wks
  Brain Abeta40 insoluble: 0 (changes of 4% or less in either direction)
  Brain Abeta40 soluble: ++ (increases of 15 to 29%)
  Brain Abeta42 insoluble: − (Decreases in the levels of Aβ of 5 to 14%)
  Brain Abeta42 soluble: 0 (changes of 4% or less in either direction)
  Plasma Abeta40: ++ (increases of 15 to 29%)
  Plasma Abeta42: +++ (increases of 30% or higher)
[1]; 100 mg/kg daily, 16 wks
  Brain Abeta40 insoluble: 0 (changes of 4% or less in either direction)
  Brain Abeta40 soluble: −− (decreases of 15 to 29%)
  Brain Abeta42 insoluble: + (increases in the levels of Aβ (relative to vehicle treated control) of 5 to 14%)
  Brain Abeta42 soluble: − (Decreases in the levels of Aβ of 5 to 14%)
  Plasma Abeta40: ++ (increases of 15 to 29%)
  Plasma Abeta42: ++ (increases of 15 to 29%)
[2]; [3]
  Aβ40 Change Insoluble: −−− (decreases of 39% or more)
  Aβ42 Change Insoluble: −− (decreases of 20 to 38%)
[2]; [4]
  Aβ40 Change Insoluble: −− (decreases of 20 to 38%)
  Aβ40 Change Soluble: −− (decreases of 20 to 38%)
  Aβ42 Change Insoluble: −− (decreases of 20 to 38%)
[2]; plasma, Day 14, methylcellulose group, 250 mg/kg daily oral
  Aβ40 Change: + (increases in the levels of Aβ (relative to untreated control) of 20 to 39%)
[2]; [5]
  Aβ40 Change: ++ (increases of 40 to 69%)
  Aβ42 Change: ++ (increases of 40 to 69%)

## NCCOS(=O)(=O)O [NH2CH2CH2OSO3H]
NAC peptide
  Binding Strength: − (None; when the total binding is between 30% and 0%)

## NCCS(=O)(=O)O [H2NCH2CH2SO3H]
NAC peptide
  Binding Strength: + (Weak; when the total binding is between 70% and 30%)

## NCCCOS(=O)(=O)[O-].[Na+] [H2NCH2CH2CH2OSO3Na]
NAC peptide
  Binding Strength: ++ (Moderate; when the total binding is between 120% and 70%)

## O=S(=O)([O-])CCCCS(=O)(=O)[O-].[Na+].[Na+] [NaO3SCH2(CH2)2CH2SO3Na]
NAC peptide
  Binding Strength: − (None; when the total binding is between 30% and 0%)

## CC(C)(C)NCCCS(=O)(=O)O [drawing 748]
NAC peptide
  Binding Strength: ++ (Moderate; when the total binding is between 120% and 70%)

## O=S(=O)([O-])OCCCOS(=O)(=O)[O-].[Na+].[Na+] [NaO3SOCH2CH2CH2OSO3Na]
NAC peptide
  Binding Strength: − (None; when the total binding is between 30% and 0%)

## NCCCCS(=O)(=O)O
NAC peptide
  Binding Strength: + (Weak; when the total binding is between 70% and 30%)

## O=S(=O)(O)CC(O)CNC1CCCCC1 (centres unmarked) [drawing 751]
NAC peptide
  Binding Strength: +++ (Strong; when the total binding is 120% and higher)
